Source: US20240009151A1, “FORMULATIONS OF AZOBENZENE PHOTOREACTIVE COMPOUNDS” (BAYON THERAPEUTICS, INC., priority 2020, published 2024)

Tests used:
RGCs of rd1 retina = experiment: single in vivo injection, time course of photosensitization of RGCs (spike rasters, LRI); design: species or system mouse; details: 100 μM Compound 1 and 1200 μM SBE-CD, observed up to 28 days post-injection
From the text: FIG. 3e is a scatter plot correlating the strength of light responses in RGCs and the abundance of Compound 1 in retinal tissue.

[1] = tested on: RGCs of rd1-GCaMP6f retina; experiment: 2-photon live calcium imaging of isolated rd1-GCaMP6f retina, fraction of light-responsive cells; format: cell-based, mouse; details: 100 μM Compound 1; lower stoichiometry of SBE-CD (300 μM vs 1200 μM), synaptic blockers
Experimental: To better understand how Compound 1 was photosensitizing RGCs, an rd1 mouse line was generated expressing the genetically encoded calcium indicator GCalVIP6f under control of Synapsin-1 to label all neurons for 2-photon live imaging. Isolated retina from these mice were then treated with 100 uM Compound 1 and either 300 uM or 1200 uM SBE-CD and imaged in the presence of synaptic blockers. The latter concentration was chosen to increase the amount of available cyclodextrin around to potentiate the photosensitization while not completely quenching it. Due to the spectral overlap of Compound 1 absorbance with GCaMP6fref, an interline stimulus module was developed for the 2-photon microscope. […]
To determine which neurons were responding to light, collected movies were cross correlated to the stimulus periods using an autocorrelation estimation. […] These resulting correlated micrographs were then used to quantify the number of light-responsive cells. […]
The total number of cells were counted from a max Z-projection the same movies and used to determine the relative fraction of light-responsive cells per Compound 1 formulation. […] The activity was also rastered using the recorded ΔF/F of all neurons (FIG. 2e).

[2] = tested on: retinal ganglion cells (RGCs) from rd1 retina; experiment: multielectrode array (MEA) electrophysiology of isolated rd1 retinas, light response index (LRI); format: cell-based, mouse
Experimental: Isolated rd1 retinas were treated with formulations of 100 μM Compound 1 and increasing concentrations of SBE-CD, from 300 μM to 34000 μM. Light responsivity was measured using multielectrode array (MEA) electrophysiology. […] To quantify the degree of light-responsivity for each recorded cell, the normalized relative difference in observed spike frequencies with and without light stimulus was defined as the light response index (LRI): […]

## CCN(Cc1ccccc1)c1ccc(/N=N/c2ccc(NC(=O)C[N+](CC)(CC)CC)cc2)cc1 [Compound 1]
RGCs of rd1 retina
  duration of photosensitization of RGCs: prolongs photosensitization
[1]
  number of RGCs that were light responsive (fraction of light-responding cells): greater number of RGCs that were light responsive
[2]; 100 μM Compound 1, SBE-CD from 300 μM to 34000 μM
  dependence of LRI on the amount of SBE-CD used: dose-response
[2]; 100 μM Compound 1 with 300 μM SBE-CD (minimal amount)
  light response of RGCs (MEA): strongest light-responses
[2]; 100 μM Compound 1 with 34000 μM SBE-CD (excess)
  light response of RGCs (MEA): nearly eliminated any light response
[2]; excess of SBE-CD, compared to untreated rd1 tissue
  photosensitization of the cells (LRI histograms): very weakly
[2]; minimal amount of SBE-CD
  number of light-responding RGCs (LRI histograms): greatly increased
